Source: patent publication US12060347B2 (BRISTOL-MYERS SQUIBB COMPANY, priority 2016, dated 2024)

Target: T1, human PAR4 (Homo sapiens, UniProt Q96RI0)
T1 construct: expressed in transfected cells; host or cells: HEK293 PAR4 Clone 1.2A (BMS Arctic ID 383940)
T1 sequence (Q96RI0 18-385): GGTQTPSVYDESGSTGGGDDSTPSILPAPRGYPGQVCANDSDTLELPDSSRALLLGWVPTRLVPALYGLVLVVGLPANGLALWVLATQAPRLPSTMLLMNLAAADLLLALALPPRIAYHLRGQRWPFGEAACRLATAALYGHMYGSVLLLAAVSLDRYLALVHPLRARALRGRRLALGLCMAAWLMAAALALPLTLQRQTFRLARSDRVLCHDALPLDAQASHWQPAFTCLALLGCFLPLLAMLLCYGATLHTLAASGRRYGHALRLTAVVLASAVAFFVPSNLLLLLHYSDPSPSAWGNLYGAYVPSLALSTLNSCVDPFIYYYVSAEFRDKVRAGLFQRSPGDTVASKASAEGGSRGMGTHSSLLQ
Assay: PAR4 FLIPR assay: antagonism of agonist-peptide-induced calcium mobilization in PAR4-expressing HEK293 cells
Format: cell-based
Conditions: H-Ala-Phe(4-F)-[…]NH2-induced intracellular calcium mobilization, 11-point curves

Question: `COc1cnc2c(-c3nc4cc(F)c(O[C@@H](C)[C@@H](C)OC(=O)Nc5ccc(N6CCOC6=O)nc5)cc4s3)cc(C)cc2n1` [Example 600, (2R,3S)-3-((5-fluoro-2-(2-methoxy-7-methylquinoxalin-5-yl)benzo[d]thiazol-6-yl)oxy)butan-2-yl (6-(2-oxooxazolidin-3-yl)pyridin-3-yl)carbamate] was tested. Which IC50 did it give?
Answer: 2.4 nM

Question: `COc1cnc2c(-c3nc4cc(F)c(O[C@@H](C)[C@@H](C)OC(=O)Nc5ccc(NC(C)=O)nc5)cc4s3)cc(C)cc2n1` [Example 601, (2R,3S)-3-((5-fluoro-2-(2-methoxy-7-methylquinoxalin-5-yl)benzo[d]thiazol-6-yl)oxy)butan-2-yl (6-acetamidopyridin-3-yl)carbamate] was tested. Which IC50 did it give?
Answer: 3.5 nM

Question: How did the IC50 turn out when `COc1cnc2c(-c3nc4cc(F)c(O[C@@H](C)[C@@H](C)OC(=O)Nc5ccc(N)nc5)cc4s3)cc(C)cc2n1` [Example 602, (2R,3S)-3-((5-fluoro-2-(2-methoxy-7-methylquinoxalin-5-yl)benzo[d]thiazol-6-yl)oxy)butan-2-yl (6-aminopyridin-3-yl)carbamate] was run?
Answer: 6.4 nM

Question: For `COc1cnc2c(-c3nc4cc(F)c(O[C@@H](C)[C@@H](C)OC(=O)Nc5ccc(N6CCOCC6)nc5)cc4s3)cc(C)cc2n1` [Example 603, (2R,3S)-3-((5-fluoro-2-(2-methoxy-7-methylquinoxalin-5-yl)benzo[d]thiazol-6-yl)oxy)butan-2-yl (6-morpholinopyridin-3-yl)carbamate], which IC50 is on record?
Answer: 2.1 nM

Question: How did the IC50 turn out when `COc1cnc2c(-c3nc4cc(F)c(O[C@@H](C)[C@@H](C)OC(=O)Nc5cnc(NC(=O)c6ccc(F)c(Cl)c6)nc5)cc4s3)cc(C)cc2n1` [Example 604, (2R,3S)-3-((5-fluoro-2-(2-methoxy-7-methylquinoxalin-5-yl)benzo[d]thiazol-6-yl)oxy)butan-2-yl (2-(3-chloro-4-fluorobenzamido)pyrimidin-5-yl)carbamate] was run?
Answer: 17 nM

Question: Which IC50 does the source give for `COc1cnc2c(-c3nc4cc(F)c(O[C@@H](C)[C@@H](C)OC(=O)Nc5ccc(N6CCCC6)nc5)cc4s3)cc(C)cc2n1` [Example 605, (2R,3S)-3-((5-fluoro-2-(2-methoxy-7-methylquinoxalin-5-yl)benzo[d]thiazol-6-yl)oxy)butan-2-yl (6-(pyrrolidin-1-yl)pyridin-3-yl)carbamate] here?
Answer: 0.7 nM

Question: Which IC50 does the source give for `COc1cnc2c(-c3nc4cc(F)c(O[C@@H](C)[C@@H](C)OC(=O)Nc5cnc(NCC(C)(C)O)nc5)cc4s3)cc(C)cc2n1` [Example 606, (2R,3S)-3-((5-fluoro-2-(2-methoxy-7-methylquinoxalin-5-yl)benzo[d]thiazol-6-yl)oxy)butan-2-yl (2-((2-hydroxy-2-methylpropyl)amino)pyrimidin-5-yl)carbamate] here?
Answer: 0.4 nM

Question: How did the IC50 turn out when `COc1cnc2c(-c3nc4cc(F)c(O[C@@H](C)[C@@H](C)OC(=O)Nc5cnc(N(C)S(C)(=O)=O)nc5)cc4s3)cc(C)cc2n1` [Example 607, (2R,3S)-3-((5-fluoro-2-(2-methoxy-7-methylquinoxalin-5-yl)benzo[d]thiazol-6-yl)oxy)butan-2-yl (2-(N-methylmethylsulfonamido)pyrimidin-5-yl)carbamate] was run?
Answer: 0.2 nM

Question: For `COc1cnc2c(-c3nc4cc(F)c(O[C@@H](C)[C@@H](C)OC(=O)Nc5cnc(N6CCOCC6)nc5)cc4s3)cc(C)cc2n1` [Example 608, (2R,3S)-3-((5-fluoro-2-(2-methoxy-7-methylquinoxalin-5-yl)benzo[d]thiazol-6-yl)oxy)butan-2-yl (2-morpholinopyrimidin-5-yl)carbamate], which IC50 is on record?
Answer: 0.5 nM

Question: Which IC50 does the source give for `COc1cnc2c(-c3nc4cc(F)c(OC[C@@H](C)OC(=O)Nc5ccc(N6CCOC6=O)nc5)cc4s3)cc(C)cc2n1` [Example 609, (R)-1-((5-fluoro-2-(2-methoxy-7-methylquinoxalin-5-yl)benzo[d]thiazol-6-yl)oxy)propan-2-yl (6-(2-oxooxazolidin-3-yl)pyridin-3-yl)carbamate] here?
Answer: 1.9 nM

Question: Which IC50 does the source give for `COc1cnc2c(-c3nc4cc(F)c(OC[C@@H](C)OC(=O)Nc5ccc(NC(C)=O)nc5)cc4s3)cc(C)cc2n1` [Example 610, (R)-1-((5-fluoro-2-(2-methoxy-7-methylquinoxalin-5-yl)benzo[d]thiazol-6-yl)oxy)propan-2-yl (6-acetamidopyridin-3-yl)carbamate] here?
Answer: 4.3 nM

Question: How did the IC50 turn out when `COc1cnc2c(-c3nc4cc(F)c(OC[C@@H](C)OC(=O)Nc5cncc(CO)c5)cc4s3)cc(C)cc2n1` [Example 611, (R)-1-((5-fluoro-2-(2-methoxy-7-methylquinoxalin-5-yl)benzo[d]thiazol-6-yl)oxy)propan-2-yl (5-(hydroxymethyl)pyridin-3-yl)carbamate] was run?
Answer: 2.1 nM

Question: `Cc1cc(-c2nc3cc(F)c(O[C@@H](C)[C@@H](C)OC(=O)Nc4cnc(C)nc4)cc3s2)c2ncc(C(N)=O)nc2c1` [Example 613, (2R,3S)-3-((2-(2-carbamoyl-7-methylquinoxalin-5-yl)-5-fluorobenzo[d]thiazol-6-yl)oxy)butan-2-yl (2-methylpyrimidin-5-yl)carbamate] was tested. Which IC50 did it give?
Answer: 65 nM

Question: Which IC50 does the source give for `CNC(=O)c1cnc2c(-c3nc4cc(F)c(O[C@@H](C)[C@@H](C)OC(=O)Nc5cnc(C)nc5)cc4s3)cc(C)cc2n1` [Example 614, (2R,3S)-3-((5-fluoro-2-(7-methyl-2-(methylcarbamoyl)quinoxalin-5-yl)benzo[d]thiazol-6-yl)oxy)butan-2-yl (2-methylpyrimidin-5-yl)carbamate] here?
Answer: 30 nM

Question: Which IC50 does the source give for `Cc1cc(-c2nc3cc(F)c(O[C@@H](C)[C@@H](C)OC(=O)Nc4cnc(C)nc4)cc3s2)c2ncc(C(=O)N(C)C)nc2c1` [Example 615, (2R,3S)-3-((2-(2-(dimethylcarbamoyl)-7-methylquinoxalin-5-yl)-5-fluorobenzo[d]thiazol-6-yl)oxy)butan-2-yl (2-methylpyrimidin-5-yl)carbamate] here?
Answer: 870 nM

Question: `Cc1cc(-c2nc3cc(F)c(O[C@@H](C)[C@@H](C)OC(=O)Nc4cnc(C)nc4)cc3s2)c2ncc(C(=O)NCCO)nc2c1` [Example 616, (2R,3S)-3-((5-fluoro-2-(2-((2-hydroxyethyl)carbamoyl)-7-methylquinoxalin-5-yl)benzo[d]thiazol-6-yl)oxy)butan-2-yl (2-methylpyrimidin-5-yl)carbamate] was tested. Which IC50 did it give?
Answer: 4200 nM

Question: How did the IC50 turn out when `COc1cnc2c(-c3nc4c(Cl)c(F)c(OCCOC(=O)Nc5ccns5)cc4s3)cc(C)cc2n1` [Example 621, 2-((4-chloro-5-fluoro-2-(2-methoxy-7-methylquinoxalin-5-yl)benzo[d]thiazol-6-yl)oxy)ethyl isothiazol-5-ylcarbamate] was run?
Answer: 8 nM

Question: For `COc1cnc2c(-c3nc4c(Cl)c(F)c(OC[C@H]5CNC(=O)O5)cc4s3)cc(C)cc2n1` [Example 622, (R)-5-(((4-chloro-5-fluoro-2-(2-methoxy-7-methylquinoxalin-5-yl)benzo[d]thiazol-6-yl)oxy)methyl)oxazolidin-2-one], which IC50 is on record?
Answer: 350 nM

Question: Which IC50 does the source give for `COc1cnc2c(-c3nc4c(Cl)c(F)c(OCc5coc(N)n5)cc4s3)cc(C)cc2n1` [Example 623, 4-(((4-chloro-5-fluoro-2-(2-methoxy-7-methylquinoxalin-5-yl)benzo[d]thiazol-6-yl)oxy)methyl)oxazol-2-amine] here?
Answer: 320 nM

Question: With `CCOc1cnc2c(-c3nc4cc(F)c(O[C@@H](C)[C@@H](C)OC(=O)Nc5cnc(CCOP(=O)(O)O)nc5)cc4s3)cc(C)cc2n1` [Example 624, (2R,3S)-3-((2-(2-ethoxy-7-methylquinoxalin-5-yl)-5-fluorobenzo[d]thiazol-6-yl)oxy)butan-2-yl (2-(2-(phosphonooxy)ethyl)pyrimidin-5-yl)carbamate] as the compound, how does the IC50 read?
Answer: 0.7 nM
